Test results reported in paper PMC2606880 (Diabetes, 2009).
Where two headings read alike, the source gives them in different places.

What was measured:
[1] = cited from earlier work
conscious dogs [2] = assay: Tolerability of oral vildagliptin; type: in vivo, dog; details: vildagliptin 1 mg/kg by stomach gavage; all animals
conscious dogs [3] = assay: Plasma pancreatic hormone levels; type: in vivo, dog; details: vildagliptin-treated group
conscious dogs [4] = type: in vivo, dog; details: for Net hepatic alanine uptake / Net hepatic glycerol uptake / Plasma free fatty acid level: vildagliptin 1 mg/kg oral, mean ± SE, n = 6
conscious dogs [5] = type: in vivo, dog; details: vildagliptin-treated group
type 2 diabetic patients = details: 4 weeks of treatment; cited from earlier work
[6] = basal period, mean ± SEM, n = 6

CC[C@H](C)[C@H](NC(=O)[C@H](Cc1ccccc1)NC(=O)[C@H](CCC(=O)O)NC(=O)[C@H](CCCCN)NC(=O)[C@H](C)NC(=O)[C@H](C)NC(=O)[C@H](CCC(N)=O)NC(=O)CNC(=O)[C@H](CCC(=O)O)NC(=O)[C@H](CC(C)C)NC(=O)[C@H](Cc1ccc(O)cc1)NC(=O)[C@H](CO)NC(=O)[C@H](CO)NC(=O)[C@@H](NC(=O)[C@H](CC(=O)O)NC(=O)[C@H](CO)NC(=O)[C@@H](NC(=O)[C@H](Cc1ccccc1)NC(=O)[C@@H](NC(=O)CNC(=O)[C@H](CCC(=O)O)NC(=O)[C@H](C)NC(=O)[C@@H](N)Cc1c[nH]cn1)[C@@H](C)O)[C@@H](C)O)C(C)C)C(=O)N[C@@H](C)C(=O)N[C@@H](Cc1c[nH]c2ccccc12)C(=O)N[C@@H](CC(C)C)C(=O)N[C@H](C(=O)N[C@@H](CCCCN)C(=O)NCC(=O)N[C@@H](CCCNC(=N)N)C(N)=O)C(C)C [GLP-1, Glucagon-like peptide 1]
share of the kidneys in the degradation of intact GLP-1 [1]: 10–20% | clearance (dog, in vivo, iv): 38 ± 5 mL/min/kg

N#C[C@@H]1CCCN1C(=O)CNC12CC3CC(CC(O)(C3)C1)C2 [Vildagliptin]
tolerability (conscious dogs [2]): well tolerated | increase of arterial plasma C-peptide (conscious dogs [3]; basal period to last 3 h): 3.6 fold | Hepatic sinusoidal plasma glucagon level (conscious dogs [3]; [6]): 43 ± 3 pg/mL | arterial plasma C-peptide level (conscious dogs [3]; [6]): 0.39 ± 0.04 ng/mL | arterial plasma insulin (conscious dogs [3]; [6]): 6 ± 1 μU/ml | hepatic sinusoidal plasma insulin (conscious dogs [3]; [6]): 17 ± 3 μU/ml | Hepatic sinusoidal plasma glucagon level (conscious dogs [3]; experimental period, mean ± SEM, n = 6): 23 ± 4 pg/mL | increase of arterial plasma insulin from basal period to last 3 h (conscious dogs [3]): 5.5 fold | increase of hepatic sinusoidal plasma insulin from basal period to last 3 h (conscious dogs [3]): 5.4 fold | average hepatic insulin level greater than in the control group (conscious dogs [3]; not statistically significant): 15 μU/ml | Free fatty acid and glycerol levels lower than in control (conscious dogs [4]; basal period, vildagliptin-treated group): ~25% | Net hepatic alanine uptake (conscious dogs [4]; experimental period 60 min): 1.8 ± 0.2 µmol/kg/min | Net hepatic glycerol uptake (conscious dogs [4]; experimental period 60 min): 0.5 ± 0.2 µmol/kg/min | Plasma free fatty acid level (conscious dogs [4]; experimental period 60 min): 111 ± 23 µmol/L | Net hepatic alanine uptake (conscious dogs [4]; experimental period 120 min): 2.0 ± 0.5 µmol/kg/min | Net hepatic glycerol uptake (conscious dogs [4]; experimental period 120 min): 0.5 ± 0.1 µmol/kg/min | Plasma free fatty acid level (conscious dogs [4]; experimental period 120 min): 88 ± 26 µmol/L | Net hepatic alanine uptake (conscious dogs [4]; experimental period 180 min): 2.2 ± 0.2 µmol/kg/min | Net hepatic glycerol uptake (conscious dogs [4]; experimental period 180 min): 0.4 ± 0.2 µmol/kg/min | Plasma free fatty acid level (conscious dogs [4]; experimental period 180 min): 71 ± 25 µmol/L | Net hepatic alanine uptake (conscious dogs [4]; experimental period 210 min): 2.4 ± 0.2 µmol/kg/min | Net hepatic glycerol uptake (conscious dogs [4]; experimental period 210 min): 0.5 ± 0.2 µmol/kg/min | Plasma free fatty acid level (conscious dogs [4]; experimental period 210 min): 82 ± 31 µmol/L | Net hepatic alanine uptake (conscious dogs [4]; experimental period 240 min): 2.5 ± 0.3 µmol/kg/min | Net hepatic glycerol uptake (conscious dogs [4]; experimental period 240 min): 0.3 ± 0.1 µmol/kg/min | Plasma free fatty acid level (conscious dogs [4]; experimental period 240 min): 66 ± 15 µmol/L | increase in arterial and portal vein GLP-1 concentrations (vildagliptin 1 mg/kg oral vs control): 70% | increase of nonhepatic glucose uptake from basal (conscious dogs [5]; basal period to last 3 h, not significant vs control): 8.1 ± 1.4 mg/kg/min | Nonhepatic glucose uptake (non-HGU) (conscious dogs [5]; [6]): 2.3 ± 0.3 mg/kg/min | net hepatic glucose balance (positive = output) (conscious dogs [5]; [6]): 2.1 ± 0.2 mg/kg/min | Nonhepatic glucose uptake (non-HGU) (conscious dogs [5]; last 3 h, mean ± SEM, n = 6): 10.4 ± 1.4 mg/kg/min | net hepatic glucose fractional extraction (conscious dogs [5]; last 3 h, mean ± SEM, n = 6, P < 0.05): 0.06 ± 0.01 | increase in the rise in active GLP-1 after meals (type 2 diabetic patients): twofold or greater increase
